{
  "source": "patent US20230255979A1",
  "about": "“METHODS OF TREATING ACUTE RESPIRATORY DISORDERS” (Bristol-Myers Squibb Company, priority 2020, published 2023)",
  "key": {"[1]": {"system": "PBMCs", "test": "RT-PCR gene expression of cytokines and chemokines in LPS-treated PBMCs from HV", "details": "LPS 1.5 hrs then compound 1.5 hrs"}, "[2]": {"system": "peripheral blood mononuclear cell (PBMCs)", "test": "Cytokine assessment in PBMCs pretreated with compound, then LPS or SEB/IL-2 treatment", "format": "cell-based, human", "details": "1 h pretreatment"}, "[3]": {"system": "macrophages", "test": "Cytokine production in LPS-stimulated macrophages", "format": "cell-based, human", "details": "compound 4 h or 24 h", "protocol": "(§1) For Macrophages: monocytes were differentiated into macrophages by stimulation with 50 ng/ml of MCS-F for 5 days followed by treatment with 50 ng/ml Interferon gamma for ˜16 hours. Macrophages were then plated, allowed to acclimate for 24 hours. […] All cells were cultured at 37° C. with 5% CO2 in a humidified incubator. Supernatants were collected for further analysis. Cytokine and chemokine analysis was performed in the supernatants using Magpix magnetic beads."}, "[4]": {"system": "monocytes", "test": "Cytokine production in LPS-stimulated monocytes", "format": "cell-based, human", "protocol": "(§2) In addition, PBMCs were isolated from buffy coat using Ficoll gradient method and were used for monocyte enrichment without CD16 depletion with the Stem Cell technologies kit (Cat #19058). […] All cells were cultured at 37° C. with 5% CO2 in a humidified incubator.\nas §2, with “For Monocytes:” for “In addition,”, “incubator. Supernatant was collected for cytokine and chemokine analysis.” for “incubator.”\nas §1"}, "[5]": {"system": "whole blood", "test": "Pharmacodynamic assessment in MAD study, ex vivo LPS stimulation of whole blood (TruCulture)", "design": "species or system human", "details": "healthy volunteers, 150 mg, individual level data", "protocol": "The study consisted of escalating multiple doses in sequential groups. Thirty-seven subjects were enrolled into 5 dose level cohorts (10, 30, 60, 120, and 150 mg).\nEach subject participated in a screening phase, a treatment phase (included baseline). Eligible subjects were admitted to the study site on Day −1 and resided at the study site from Day −1 to Day 17. The first dose of study drug was administered on Day 1, under fasted conditions, according to the randomization schedule. The same QD dose was administered for the remainder of the planned treatment schedule (Day 2 to Day 14, inclusive). For each dose level cohort in Part 2, blood samples were collected on Day 1 predose (0-hour), and predose (0-hour) on Days 2, 3, 5, 8, 11, and 14. Blood samples were also collected at approximately the same time of the day as the Days 1 to 14 samples on Days 15, 17, 21, and 28. Subjects were discharged from the study site on Day 17 upon satisfactory safety review and completion of the required study procedures. For all dose level cohorts, subjects returned to the study site for outpatient visits on Day 21 and Day 28. There were no early terminations.\nEx vivo stimulation was performed in whole blood using the TruCulture® assay system (Myriad RBM, Austin, Tex.). […] Briefly, blood (1 ml) was drawn into the LPS-containing TruCulture tubes from each subject on the days listed in the study protocol. The truculture tubes were placed in a 37° C. block thermostat for 24±1 hrs and then frozen at −70° C. Media mixed with plasma was analyzed for TNF-α and other cytokine/chemokine levels. TNF-α inhibition in ex vivo LPS-stimulated blood was measured as percent change in TNF-α levels from baseline. Percent change in other cytokines/chemokines in the ex vivo stimulation assay was also measured with respect to their baseline levels."}},
  "note": "Entries after “also recorded” stand apart in the source; their conditions may differ.",
  "data": [
    {"smiles": "CCOCc1cnc(Cl)nc1Oc1ccc2c(ccc3sc4c(c32)NC[C@@H](C)NC4=O)n1", "note": "[Compound I-82]", "values": [
      {"measurement": "inhibition of gene expression of MCP-1", "setting": "[1]; FIG. 5A", "result": "inhibition of gene expression; also recorded: inhibits gene expression"},
      {"measurement": "inhibition of gene expression of IL-6", "setting": "[1]; FIG. 5B", "result": "inhibition of gene expression; also recorded: inhibits gene expression"},
      {"measurement": "inhibition of gene expression of IL-1β", "setting": "[1]; FIG. 5C", "result": "inhibition of gene expression; also recorded: inhibits gene expression"},
      {"measurement": "inhibition of gene expression of TNF-α", "setting": "[1]; FIG. 6A", "result": "inhibits gene expression"},
      {"measurement": "inhibition of gene expression of GM-CSF", "setting": "[1]; FIG. 6B", "result": "inhibition of gene expression; also recorded: inhibits gene expression"},
      {"measurement": "inhibition of gene expression of ZFP36 (TTP)", "setting": "[1]; FIG. 6C", "result": "does not inhibit gene expression"},
      {"measurement": "inhibition of TNF-α in PBMCs", "setting": "[2]; LPS stimulation 24 hours, FIG. 1A", "result": "dose dependent inhibition; also recorded: decreased in a dose-dependent manner"},
      {"measurement": "inhibition of TNF-α in PBMCs", "setting": "[2]; SEB/IL-2 treatment 3 days, FIG. 1B", "result": "dose dependent inhibition; also recorded: decreased in a dose-dependent manner"},
      {"measurement": "inhibition of IL-6 in macrophages", "setting": "[3]; LPS 3 or 23 hours, FIG. 4A", "result": "dose-dependent inhibition; also recorded: inhibits"},
      {"measurement": "inhibition of IL-1β in macrophages", "setting": "[3]; LPS 3 or 23 hours, FIG. 4B", "result": "dose-dependent inhibition; also recorded: inhibits"},
      {"measurement": "inhibition of TNF-α in macrophages", "setting": "[3]; LPS (100 ng/ml) 3 or 23 hours, FIG. 3", "result": "dose-dependent inhibition; also recorded: inhibits"},
      {"measurement": "inhibition of TNF-α in monocytes", "setting": "[4]; LPS stimulation 23 hours, FIG. 2", "result": "dose dependent inhibition; also recorded: decreased in a dose-dependent manner"},
      {"measurement": "inhibition of TNF-α in monocytes", "setting": "[4]; compound 4 h or 24 h, LPS 3 or 23 hours, FIG. 3", "result": "dose-dependent inhibition; also recorded: inhibits"},
      {"measurement": "inhibition of IL-6 in monocytes", "setting": "[4]; compound 4 h or 24 h, LPS 3 or 23 hours, FIG. 4A", "result": "dose-dependent inhibition; also recorded: inhibits"},
      {"measurement": "inhibition of IL-1β in monocytes", "setting": "[4]; compound 4 h or 24 h, LPS 3 or 23 hours, FIG. 4B", "result": "dose-dependent inhibition; also recorded: inhibits"},
      {"measurement": "inhibition of IL-6 following ex vivo LPS stimulation", "setting": "[5]; FIG. 8B", "result": "inhibition of IL-6"},
      {"measurement": "inhibition of MIP-1A following ex vivo LPS stimulation", "setting": "[5]; FIG. 8C", "result": "inhibition of MIP-1A"},
      {"measurement": "inhibition of MIP-1B following ex vivo LPS stimulation", "setting": "[5]; FIG. 8D", "result": "inhibition of MIP-1B"}
    ]}
  ]
}
